Results reported in paper PMC4160570, “Effects of proarrhythmic drugs on relaxation time and beating pattern in rat engineered heart tissue” (Basic Research in Cardiology, 2014).
Where two headings read alike, the source gives them in different places.

How the values were obtained:
[1] = system: mouse; conditions: in vivo; cited from earlier work
[2] = system: rat engineered heart tissue (EHT); assay: Video-optical analysis of contractile parameters of spontaneously beating rat EHTs (50 nM epinephrine); conditions: for significant T2 prolongation (p<0.05 and at least 15 % vs baseline): 1-, 10-, 100-fold FTPC, 50 nM epinephrine, n = 4–8; for irregular beating as the primary effect: sinusoidal fluctuation of twitch amplitudes, time dependent; for ability to mimic the effect of JTV519 on 4AP-induced changes: flecainide 0.5 µM; for effect on 4AP-induced beating irregularity and aftercontractions / T2 values: 4AP 10 mM; for effect on 4AP-induced beating irregularity and aftercontractions: SEA0400 2 µM or JTV519 2 µM; for relaxation remaining prolonged with 4AP in presence of inhibitor: high concentration of 4AP plus SEA0400 or JTV519
[3] = system: rat; conditions: cited from earlier work
[4] = 4AP 10 mM in absence and presence of the blocker, SEA0400 2 µM, JTV519 2 µM

Compound: CC(C)NCC(O)c1ccc(NS(C)(=O)=O)cc1 (racemic) [D,L-sotalol]
- LD50 [1]: 790 mg∙kg^-1 (mouse, i. p.)
- T2-effective concentrations [2]: 100 fold FTPC
- published IKs IC50 relative to threshold for group 1 or 2 effects [2]: at or below the threshold for group 1 or 2 effects
- significant T2 prolongation (p<0.05 and at least 15 % vs baseline) [2]: Significant T2 prolongations

Compound: CCN(CC)CCCN(c1ccccc1)C1Cc2ccccc2C1 [Aprindine]
- significant T2 prolongation (p<0.05 and at least 15 % vs baseline) [2]: Significant T2 prolongations

Compound: COc1ccc(CCN2CCC(Nc3nc4ccccc4n3Cc3ccc(F)cc3)CC2)cc1 [Astemizole]
- LD50 [1]: 35 mg∙kg^-1 (mouse, i. v.)
- effect on force (group 3) ([2]; 1–100× FTPC): decrease in force

Compound: CC(C)COCC(CN(Cc1ccccc1)c1ccccc1)N1CCCC1 (stereo not drawn) [Bepridil]
- published IKs IC50 relative to threshold for group 1 or 2 effects [2]: at or below the threshold for group 1 or 2 effects
- significant T2 prolongation (p<0.05 and at least 15 % vs baseline) [2]: Significant T2 prolongations
- irregular beating as the primary effect [2]: induced irregular beating

Compound: COc1cc(N)c(Cl)cc1C(=O)NC1CCN(CCCOc2ccc(F)cc2)CC1OC (stereo not drawn) [Cisapride]
- LD50 ([3]; in vivo): 4.166 mg∙kg^-1 (rat, p. o.)
- significant T2 prolongation (p<0.05 and at least 15 % vs baseline) [2]: Significant T2 prolongations

Compound: CC[C@H]1OC(=O)[C@H](C)[C@@H](O[C@H]2C[C@@](C)(OC)[C@@H](O)[C@H](C)O2)[C@H](C)[C@@H](O[C@@H]2O[C@H](C)C[C@H](N(C)C)[C@H]2O)[C@](C)(OC)C[C@@H](C)C(=O)[C@H](C)[C@@H](O)[C@]1(C)O [Clarithromycin]
- LD50 ([3]; in vivo): 1.270 mg∙kg^-1 (rat, p. o.) 850 mg∙kg^-1 (mouse, i. p.)
- LD50 [1]: 1.270 mg∙kg^-1 (rat, p. o.) 850 mg∙kg^-1 (mouse, i. p.)
- published IC50 values for hERG and Ito relative to threshold for T2 prolongation or irregularity [2]: at or below the threshold for T2 prolongation or irregularity
- significant T2 prolongation (p<0.05 and at least 15 % vs baseline) [2]: Significant T2 prolongations

Compound: CNCCCN1c2ccccc2CCc2ccccc21 [Desipramine]
- LD50 [1]: 740 mg∙kg^-1 (mouse, p. o.)
- significant T2 prolongation (p<0.05 and at least 15 % vs baseline) [2]: Significant T2 prolongations
- irregular beating as the primary effect [2]: induced irregular beating

Compound: CN(C)CCOC(c1ccccc1)c1ccccc1 [Diphenhydramine]
- effect on contraction time T1 (group 3) ([2]; 1–100× FTPC): prolongation of contraction time T1

Compound: CC(C)N(CCC(C(N)=O)(c1ccccc1)c1ccccn1)C(C)C (stereo not drawn) [Disopyramide]
- LD50 ([3]; in vivo): 333 mg∙kg^-1 (rat, p. o.)
- T2-effective concentrations [2]: 5 fold FTPC
- significant T2 prolongation (p<0.05 and at least 15 % vs baseline) [2]: Significant T2 prolongations

Compound: CN(CCOc1ccc(NS(C)(=O)=O)cc1)CCc1ccc(NS(C)(=O)=O)cc1 [Dofetilide]
- effect on T2 at 100-fold IC50 concentrations [2]: lack of effect
- effect on the parameters studied (group 4) ([2]; 1–100× FTPC): without any effect on the parameters studied

Compound: O=c1[nH]c2ccccc2n1CCCN1CCC(n2c(=O)[nH]c3cc(Cl)ccc32)CC1 [Domperidone]
- significant T2 prolongation (p<0.05 and at least 15 % vs baseline) [2]: Significant T2 prolongations

Compound: CC(C)(C)c1ccc(C(=O)CCCN2CCC(OC(c3ccccc3)c3ccccc3)CC2)cc1 [Ebastine]
- significant T2 prolongation (p<0.05 and at least 15 % vs baseline) [2]: Significant T2 prolongations

Compound: CC(C)(C(=O)O)c1ccc(C(O)CCCN2CCC(C(O)(c3ccccc3)c3ccccc3)CC2)cc1 (stereo not drawn) [Fexofenadine]
- significant T2 prolongation (p<0.05 and at least 15 % vs baseline) [2]: Significant T2 prolongations

Compound: O=C(NCC1CCCCN1)c1cc(OCC(F)(F)F)ccc1OCC(F)(F)F (stereo not drawn) [Flecainide]
- LD50 ([3]; in vivo): 1.346 mg∙kg^-1 (rat, p. o.)
- significant T2 prolongation (p<0.05 and at least 15 % vs baseline) [2]: Significant T2 prolongations
- ability to mimic the effect of JTV519 on 4AP-induced changes ([2]; data not shown): did not mimic the effect of JTV519

Compound: CC[C@H](CO)Nc1nc(NCc2ccccc2)n2ncc(C(C)C)c2n1 [GP 0210]
- Effect on EHT contractility ([2]; NCEs tested at 0.1, 1, 10 µM): -

Compound: O=C(CCCN1CCC(O)(c2ccc(Cl)cc2)CC1)c1ccc(F)cc1 [Haloperidol]
- LD50 ([3]; in vivo): 128 mg∙kg^-1 (rat, p. o.) 30 mg∙kg^-1 (mouse, i. p.)
- LD50 [1]: 128 mg∙kg^-1 (rat, p. o.) 30 mg∙kg^-1 (mouse, i. p.)
- effect on contraction time T1 (group 3) ([2]; 1–100× FTPC): prolongation of contraction time T1

Compound: CCCCCCCN(CC)CCCC(O)c1ccc(NS(C)(=O)=O)cc1 (stereo not drawn) [Ibutilide]
- effect on T2 at 100-fold IC50 concentrations [2]: lack of effect
- effect on the parameters studied (group 4) ([2]; 1–100× FTPC): without any effect on the parameters studied

Compound: CN(C)CCCN1c2ccccc2CCc2ccccc21 [Imipramine]
- irregular beating as the primary effect [2]: induced irregular beating

Compound: COc1ccc2c(c1)CN(C(=O)CCN1CCC(Cc3ccccc3)CC1)CCS2 [JTV519]
- effect on the T2-prolonging effect of 4AP [2, 4]: reduced the effect of 4AP
- effect on 4AP-induced beating irregularity and aftercontractions [2]: completely abolished beating irregularity and aftercontractions
- T2 values ([2]; SEA0400 2 µM, JTV519 2 µM): 80 ms
- relaxation remaining prolonged with 4AP in presence of inhibitor [2]: ~ 200%

Compound: OC(c1cc(C(F)(F)F)nc2c(C(F)(F)F)cccc12)C1CCCCN1 (stereo not drawn) [Mefloquine]
- LD50 ([3]; in vivo): 880 mg∙kg^-1 (rat, p. o.)
- effect on contraction time T1 (group 3) ([2]; 1–100× FTPC): prolongation of contraction time T1

Compound: COc1c(N2C[C@@H]3CCCN[C@@H]3C2)c(F)cc2c(=O)c(C(=O)O)cn(C3CC3)c12 [Moxifloxacin]
- T2-effective concentrations [2]: 100 fold FTPC
- significant T2 prolongation (p<0.05 and at least 15 % vs baseline) [2]: Significant T2 prolongations

Compound: O=C1NC(=O)C(c2ccccc2)(c2ccccc2)N1 [Phenytoin]
- LD50 ([3]; in vivo): 1.635 mg∙kg^-1 (rat, p. o.) 100 mg∙kg^-1 (mouse, i. p.)
- LD50 [1]: 1.635 mg∙kg^-1 (rat, p. o.) 100 mg∙kg^-1 (mouse, i. p.)
- EHT-effective concentrations relative to hERG IC50 [2]: relaxation slowing occurred at concentrations below hERG IC50
- concentration at which T2 is prolonged [2]: 1 × FTPC
- significant T2 prolongation (p<0.05 and at least 15 % vs baseline) [2]: Significant T2 prolongations

Compound: O=c1[nH]c2ccccc2n1C1CCN(CCCC(c2ccc(F)cc2)c2ccc(F)cc2)CC1 [Pimozide]
- LD50 [1]: 288 mg∙kg^-1 (mouse, p. o.)

Compound: CCN(CC)CCNC(=O)c1ccc(N)cc1 [Procainamide]
- significant T2 prolongation (p<0.05 and at least 15 % vs baseline) [2]: Significant T2 prolongations

Compound: Cc1nc2n(c(=O)c1CCN1CCC(c3noc4cc(F)ccc34)CC1)CCCC2 [Risperidone]
- LD50 ([3]; in vivo): 56,6 mg∙kg^-1 (rat, p. o.)

Compound: CCOc1ccc(Oc2ccc(OCc3cc(F)ccc3F)cc2)c(N)c1 [SEA0400]
- effect on the T2-prolonging effect of 4AP [2, 4]: reduced the effect of 4AP
- effect on 4AP-induced beating irregularity and aftercontractions [2]: completely abolished beating irregularity and aftercontractions
- T2 values ([2]; SEA0400 2 µM, JTV519 2 µM): 78 ms
- relaxation remaining prolonged with 4AP in presence of inhibitor [2]: ~ 200%

Compound: O=C1NCCN1CCN1CCC(c2cn(-c3ccc(F)cc3)c3ccc(Cl)cc23)CC1 [Sertindole]
- LD50 [1]: 420 mg∙kg^-1 (mouse, i. p.)
- effect on contraction time T1 (group 3) ([2]; 1–100× FTPC): prolongation of contraction time T1

Compound: C[C@@H]1CN(c2c(F)c(N)c3c(=O)c(C(=O)O)cn(C4CC4)c3c2F)C[C@H](C)N1 [Sparfloxacin]
- significant T2 prolongation (p<0.05 and at least 15 % vs baseline) [2]: Significant T2 prolongations
- changes associated with T2 prolongation ([2]; original recording, Supplemental Fig. 4): marked reduction of beating rate and an increase in twitch force

Compound: CC/C(=C(\c1ccccc1)c1ccc(OCCN(C)C)cc1)c1ccccc1 [Tamoxifen]
- LD50 ([3]; p. o.): 4.100 mg∙kg^-1 (rat, p. o.)

Compound: CC(C)(C)c1ccc(C(O)CCCN2CCC(C(O)(c3ccccc3)c3ccccc3)CC2)cc1 (stereo not drawn) [Terfenadine]
- effect on T2 (group 3) ([2]; 1–100× FTPC): shortening of T2

Compound: CCCCNc1ccc(C(=O)OCCN(C)C)cc1 [Tetracaine]
- effect on the T2-prolonging effect of 4AP [2, 4]: increased the T2-prolonging effect of 4AP
- ability to mimic the effect of JTV519 on 4AP-induced changes ([2]; data not shown): did not mimic the effect of JTV519

Compound: NC1=N[C@H](O)[C@H]2[C@H]3O[C@]4(O)O[C@@H]([C@@H](O)[C@@]2(N1)[C@@H]4O)[C@]3(O)CO [Tetrodotoxin]
- effect of pure INa blockers on T1 [2]: did not prolong T1
- effect on the T2-prolonging effect of 4AP [2]: increased the T2-prolonging effect of 4AP

Compound: C/C=C(/C)C(=O)O[C@H]1C(C)=C2[C@H]([C@@H]1OC(=O)CCCCCCC)[C@@](C)(OC(C)=O)C[C@H](OC(=O)CCC)[C@@]1(O)[C@H]2OC(=O)[C@@]1(C)O [Thapsigargin]
- effect on time of relaxation, alone ([2]; 3–30 nM): did not affect time of relaxation as such
- effect on the T2-prolonging effect of 4AP [2, 4]: increased the T2-prolonging effect of 4AP

Compound: CSc1ccc2c(c1)N(CCC1CCCCN1C)c1ccccc1S2 (stereo not drawn) [Thioridazine]
- irregular beating as the primary effect [2]: induced irregular beating

Compound: Cn1c(=O)c2c(ncn2C)n(C)c1=O [caffeine]
- effect on beating rate and twitch ([2]; high concentration of caffeine (5 mM)): reduced beating rate and induced a large and wide twitch

Compound: C[N+](C)(C)CCOC(N)=O [carbachol]
- effect on frequency of beating in the burst ([2]; carbachol 1 µM added to epinephrine 50 nM): reversed epinephrine effect and induced partial stop
- EHTs that stopped spontaneous beating ([2]; carbachol 1 µM plus epinephrine): 3/7

Compound: CCN(CC)CC(=O)Nc1c(C)cccc1C [lidocaine]
- effect of pure INa blockers on T1 ([2]; data not shown): did not prolong T1
